Results taken from patent US6737383B1, “Herbicidal oxadiazolidines” (priority 1999, dated 2004).

How the values were obtained:
littleseed canarygrass [1] = assay: Test E littleseed canarygrass; assay type: in vivo, Phalaris minor; conditions: Preemergence
kochia = assay: Test E kochia; assay type: in vivo, Kochia scoparia; conditions: Preemergence
rape = assay: Test E rape; assay type: in vivo, Brassica napus; conditions: Preemergence
Russian thistle = assay: Test E Russian thistle; assay type: in vivo, Salsola kali; conditions: Preemergence
winter barley = assay: Test E winter barley; assay type: in vivo, Hordeum vulgare; conditions: Postemergence
Protocol: (§1) Compounds evaluated in this test were formulated in a non-phytotoxic solvent mixture which included a surfactant and applied to plants that were in the 1- to 4-leaf stage (postemergence application). A mixture of sandy loam soil and greenhouse potting mix in a 60:40 ratio was used for the postemergence test.
(§2) Plantings of these crops and weed species were adjusted to produce plants of appropriate size for the postemergence test. All plant species were grown using normal greenhouse practices. Crop and weed species include annual bluegrass (Poa annua), blackgrass (Alopecurus myosuroides), black nightshade (Solanum nigra), chickweed (Stellaria media), common poppy (Papaver rhoeas), deadnettle (Lamium amplexicaule), downy brome (Bromus tectorum), field violet (Viola arvensis), galium (Galium aparine), green foxtail (Setaria viridis), Italian ryegrass (Lolium multiflorum), jointed goatgrass (Aegilops cylindrica), kochia (Kochia scoparia), lambsquarters (Chenopodium album), littleseed canarygrass (Phalaris minor), rape (Brassica napus), redroot pigweed (Amaranthus retroflexus), Russian thistle (Salsola kali), scentless chamomile (Matricaria inodora), spring barley (Hordeum vulgare), sugar beet (Beta vulgaris), sunflower (Helianthus annuus), ivyleaf speedwell (Veronica hederaefolia), spring wheat (Triticum aestivum), winter wheat (Triticum aestivum), wild buckwheat (Polygonum convolvulus), wild mustard (Sinapis arvensis), wild oat (Avena fatua), windgrass (Apera spica-venti) and winter barley (Hordeum vulgare).
(§3) Treated plants and untreated controls were maintained in a greenhouse for approximately 21 to 28 days, after which all treated plants were compared to untreated controls and visually evaluated. […] A dash response (-) means no test result.

johnsongrass = assay: Test C postemergence johnsongrass; assay type: in vivo, Sorghum halepense; conditions: 0 to 100 scale, 0 no effect, 100 complete control
Protocol: as §1, with “grown for various periods of time before treatment” for “in the 1- to 4-leaf stage”
(§4) Plantings of these crops and weed species were adjusted to produce plants of appropriate size for the postemergence test. All plant species were grown using normal greenhouse practices. Crop and weed species include arrowleaf sida (Sida rhombifolia), barnyardgrass (Echinochloa crus-galli), cocklebur (Xanthium strumarium), common ragweed (Ambrosia elatior), corn (Zea mays), cotton (Gossypium hirsutum), eastern black nightshade (Solanum ptycanthum), fall panicum (Panicum dichotomiflorum), field bindweed (Convolvulus arvensis), giant foxtail (Setaria faberii), hairy beggarticks (Bidens pilosa), ivyleaf morningglory (Ipomoea hederacea), johnsongrass (Sorghum halepense), ladysthumb smartweed (Polygonum persicaria), lambsquarters (Chenopodium album), large crabgrass (Digitaria sanguinalis), purple nutsedge (Cyperus rotundus), redroot pigweed (Amaranthus retroflexus), soybean (Glycine max), surinam grass (Brachiaria decumbens), velvetleaf (Abutilon theophrasti) and wild poinsettia (Euphorbia heterophylla).
(§5) Treated plants and untreated controls were maintained in a greenhouse for approximately 14, to 21 days, after which all treated plants were compared to untreated controls and visually evaluated. Plant response ratings, summarized in Table C, were based upon a 0 to 100 scale where 0 was no effect and 100 was complete control. A dash response (−) means no test result.

Italian ryegrass = assay: Test E Italian ryegrass; assay type: in vivo, Lolium multiflorum; conditions: Postemergence
Protocol: as §1, §2, §3

surinam grass = assay: Test C postemergence surinam grass; assay type: in vivo, Brachiaria decumbens; conditions: 0 to 100 scale, 0 no effect, 100 complete control
Protocol: as §1, with “grown for various periods of time before treatment” for “in the 1- to 4-leaf stage”
as §4, §5

wild oat = assay: Test E wild oat; assay type: in vivo, Avena fatua; conditions: Postemergence
Protocol: as §1, §2, §3

giant foxtail = assay: Test C postemergence giant foxtail; assay type: in vivo, Setaria faberii; conditions: 0 to 100 scale, 0 no effect, 100 complete control
Protocol: as §1, with “grown for various periods of time before treatment” for “in the 1- to 4-leaf stage”
as §4, §5

large crabgrass = assay: Test C postemergence large crabgrass; assay type: in vivo, Digitaria sanguinalis; conditions: 0 to 100 scale, 0 no effect, 100 complete control
Protocol: as §1, with “grown for various periods of time before treatment” for “in the 1- to 4-leaf stage”
as §4, §5

littleseed canarygrass [2] = assay: Test E littleseed canarygrass; assay type: in vivo, Phalaris minor; conditions: Postemergence
Outline: (§6)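 Visual evaluation versus untreated controls after about 21 to 28 days in the greenhouse. Compound was in a surfactant-containing non-phytotoxic solvent; postemergence plants were treated at the 1- to 4-leaf stage, grown in a 60:40 sandy loam and potting mix blend.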

soybean = assay: Test C postemergence soybean; assay type: in vivo, Glycine max; conditions: 0 to 100 scale, 0 no effect, 100 complete control
Protocol: as §1, with “grown for various periods of time before treatment” for “in the 1- to 4-leaf stage”
as §4, §5

field bindweed = assay: Test C postemergence field bindweed; assay type: in vivo, Convolvulus arvensis; conditions: 0 to 100 scale, 0 no effect, 100 complete control
Protocol: as §1, with “grown for various periods of time before treatment” for “in the 1- to 4-leaf stage”
as §4, §5

velvetleaf = assay: Test C postemergence velvetleaf; assay type: in vivo, Abutilon theophrasti; conditions: 0 to 100 scale, 0 no effect, 100 complete control
Protocol: as §1, with “grown for various periods of time before treatment” for “in the 1- to 4-leaf stage”
as §4, §5

spring barley = assay: Test E spring barley; assay type: in vivo, Hordeum vulgare; conditions: Postemergence
Protocol: as §1, §2, §3

wild buckwheat [3] = assay: Test E wild buckwheat; assay type: in vivo, Polygonum convolvulus; conditions: Preemergence
wild buckwheat [4] = assay: Test E wild buckwheat; assay type: in vivo, Polygonum convolvulus; conditions: Postemergence
Outline: as §6

[5] = Rate 125 g/ha, 0 to 100 scale (0 no effect, 100 complete control)
[6] = Rate 500 g/ha, 0 to 100 scale where 0 is no effect and 100 is complete control
[7] = Rate 250 g/ha, 0 to 100 scale (0 no effect, 100 complete control)
[8] = Rate 500 g/ha, 0 to 100 scale, 0 no effect, 100 complete control

**Q.** For `CCn1c(=O)on(C(=O)N(c2ccc(F)cc2F)C(C)C)c1=O` [Compound 116], which “Plant response rating, LS canarygrass” value (littleseed canarygrass [1]; [5]) is on record?
**A.** 70

**Q.** What about the “Plant response rating, LS canarygrass” value (littleseed canarygrass [1]; Rate 250 g/ha, 0 to 100 scale) of the same molecule?
**A.** 80

**Q.** What about the “Plant response rating, LS canarygrass” value (littleseed canarygrass [1]; [6]) of the same molecule?
**A.** 100

**Q.** And the “Plant response rating, Kochia” value (kochia; [5])?
**A.** 0

**Q.** What about the “Plant response rating, Kochia” value (kochia; Rate 250 g/ha, 0 to 100 scale) of the same molecule?
**A.** 85

**Q.** And the “Plant response rating, Kochia” value (kochia; [6])?
**A.** 70

**Q.** And the “Plant response rating, Rape” value (rape; [5])?
**A.** 60

**Q.** And the “Plant response rating, Rape” value (rape; Rate 250 g/ha, 0 to 100 scale)?
**A.** 100

**Q.** What about the “Plant response rating, Rape” value (rape; [6]) of the same molecule?
**A.** 100

**Q.** What about the “Plant response rating, Russian thistle” value (Russian thistle; [5]) of the same molecule?
**A.** 0

**Q.** And the “Plant response rating, Russian thistle” value (Russian thistle; Rate 250 g/ha, 0 to 100 scale)?
**A.** 0

**Q.** And the “Plant response rating, Russian thistle” value (Russian thistle; [6])?
**A.** 50

**Q.** What about the “Plant response rating, Barley (winter)” value (winter barley; Rate 62 g/ha, 0 to 100 scale) of the same molecule?
**A.** 0

**Q.** What about the “Plant response rating, Barley (winter)” value (winter barley; Rate 125 g/ha, 0 to 100 scale) of the same molecule?
**A.** 10

**Q.** What about the “Plant response rating, Barley (winter)” value (winter barley; [7]) of the same molecule?
**A.** 10

**Q.** And the “Plant response rating, Barley (winter)” value (winter barley; [8])?
**A.** 10

**Q.** What about the “Plant response rating Johnsongrass” value (johnsongrass; Rate 140 g/ha) of the same molecule?
**A.** 10

**Q.** What about the “Plant response rating Johnsongrass” value (johnsongrass; Rate 280 g/ha) of the same molecule?
**A.** 40

**Q.** What about the “Plant response rating Johnsongrass” value (johnsongrass; Rate 560 g/ha) of the same molecule?
**A.** 60

**Q.** What about the “Plant response rating Johnsongrass” value (johnsongrass; Rate 1120 g/ha) of the same molecule?
**A.** 80

**Q.** And the “Plant response rating, I. Ryegrass” value (Italian ryegrass; Rate 62 g/ha, 0 to 100 scale)?
**A.** 0

**Q.** And the “Plant response rating, I. Ryegrass” value (Italian ryegrass; Rate 125 g/ha, 0 to 100 scale)?
**A.** 50

**Q.** And the “Plant response rating, I. Ryegrass” value (Italian ryegrass; [7])?
**A.** 70

**Q.** What about the “Plant response rating, I. Ryegrass” value (Italian ryegrass; [8]) of the same molecule?
**A.** 0

**Q.** What about the “Plant response rating, Surinam grass” value (surinam grass; Rate 140 g/ha) of the same molecule?
**A.** 0

**Q.** And the “Plant response rating, Surinam grass” value (surinam grass; Rate 280 g/ha)?
**A.** 0

**Q.** And the “Plant response rating, Surinam grass” value (surinam grass; Rate 1120 g/ha)?
**A.** 90

**Q.** What about the “Plant response rating, Wild oat” value (wild oat; Rate 62 g/ha, 0 to 100 scale) of the same molecule?
**A.** 20

**Q.** What about the “Plant response rating, Wild oat” value (wild oat; Rate 125 g/ha, 0 to 100 scale) of the same molecule?
**A.** 0

**Q.** What about the “Plant response rating, Wild oat” value (wild oat; [7]) of the same molecule?
**A.** 30

**Q.** What about the “Plant response rating, Wild oat” value (wild oat; [8]) of the same molecule?
**A.** 70

**Q.** And the “Plant response rating, Giant foxtail” value (giant foxtail; Rate 280 g/ha)?
**A.** 60

**Q.** What about the “Plant response rating, Giant foxtail” value (giant foxtail; Rate 560 g/ha) of the same molecule?
**A.** 60

**Q.** What about the “Plant response rating, Giant foxtail” value (giant foxtail; Rate 1120 g/ha) of the same molecule?
**A.** 85

**Q.** And the “Plant response rating Large crabgrass” value (large crabgrass; Rate 140 g/ha)?
**A.** 0

**Q.** And the “Plant response rating Large crabgrass” value (large crabgrass; Rate 280 g/ha)?
**A.** 0

**Q.** What about the “Plant response rating Large crabgrass” value (large crabgrass; Rate 560 g/ha) of the same molecule?
**A.** 30

**Q.** And the “Plant response rating Large crabgrass” value (large crabgrass; Rate 1120 g/ha)?
**A.** 90

**Q.** What about the “Plant response rating, LS canarygrass” value (littleseed canarygrass [2]; Rate 62 g/ha, 0 to 100 scale) of the same molecule?
**A.** 10

**Q.** And the “Plant response rating, LS canarygrass” value (littleseed canarygrass [2]; Rate 125 g/ha, 0 to 100 scale)?
**A.** 30

**Q.** What about the “Plant response rating, LS canarygrass” value (littleseed canarygrass [2]; [7]) of the same molecule?
**A.** 40

**Q.** What about the “Plant response rating, LS canarygrass” value (littleseed canarygrass [2]; [8]) of the same molecule?
**A.** 50

**Q.** And the “Plant response rating, Soybean” value (soybean; Rate 140 g/ha)?
**A.** 10

**Q.** And the “Plant response rating, Soybean” value (soybean; Rate 280 g/ha)?
**A.** 10

**Q.** What about the “Plant response rating, Soybean” value (soybean; Rate 560 g/ha) of the same molecule?
**A.** 30

**Q.** What about the “Plant response rating, Soybean” value (soybean; Rate 1120 g/ha) of the same molecule?
**A.** 40

**Q.** And the “Plant response rating Field bindweed” value (field bindweed; Rate 140 g/ha)?
**A.** 0

**Q.** What about the “Plant response rating Field bindweed” value (field bindweed; Rate 280 g/ha) of the same molecule?
**A.** 0

**Q.** What about the “Plant response rating Field bindweed” value (field bindweed; Rate 560 g/ha) of the same molecule?
**A.** 50

**Q.** And the “Plant response rating Field bindweed” value (field bindweed; Rate 1120 g/ha)?
**A.** 50

**Q.** And the “Plant response rating, Velvetleaf” value (velvetleaf; Rate 140 g/ha)?
**A.** 0

**Q.** And the “Plant response rating, Velvetleaf” value (velvetleaf; Rate 280 g/ha)?
**A.** 0

**Q.** What about the “Plant response rating, Velvetleaf” value (velvetleaf; Rate 560 g/ha) of the same molecule?
**A.** 40

**Q.** What about the “Plant response rating, Velvetleaf” value (velvetleaf; Rate 1120 g/ha) of the same molecule?
**A.** 80

**Q.** And the “Plant response rating, Spring Barley” value (spring barley; Rate 62 g/ha, 0 to 100 scale)?
**A.** 5

**Q.** What about the “Plant response rating, Spring Barley” value (spring barley; Rate 125 g/ha, 0 to 100 scale) of the same molecule?
**A.** 0

**Q.** What about the “Plant response rating, Spring Barley” value (spring barley; [7]) of the same molecule?
**A.** 10

**Q.** And the “Plant response rating, Spring Barley” value (spring barley; [8])?
**A.** 0

**Q.** And the “Plant response rating, Wild buckwheat” value (wild buckwheat [3]; [5])?
**A.** 40

**Q.** What about the “Plant response rating, Wild buckwheat” value (wild buckwheat [3]; Rate 250 g/ha, 0 to 100 scale) of the same molecule?
**A.** 60

**Q.** And the “Plant response rating, Wild buckwheat” value (wild buckwheat [3]; [6])?
**A.** 95

**Q.** What about the “Plant response rating, Wild buckwheat” value (wild buckwheat [4]; Rate 62 g/ha, 0 to 100 scale) of the same molecule?
**A.** 0

**Q.** And the “Plant response rating, Wild buckwheat” value (wild buckwheat [4]; Rate 125 g/ha, 0 to 100 scale)?
**A.** 0

**Q.** What about the “Plant response rating, Wild buckwheat” value (wild buckwheat [4]; [7]) of the same molecule?
**A.** 0

**Q.** And the “Plant response rating, Wild buckwheat” value (wild buckwheat [4]; [8])?
**A.** 0
